Measurements reported in publication PMC6905088 (Biochemical pharmacology, 2019).

Legend:
[1] = target: CYP2C9 (Homo sapiens, UniProt P11712); test: Recombinant isozyme kinetic assay
[2] = target: T1, CYP1A2 (Homo sapiens, UniProt P05177); test: Recombinant isozyme kinetic assay; conditions: substrate desmethyl-terbinafine
T1 sequence (P05177 1-516): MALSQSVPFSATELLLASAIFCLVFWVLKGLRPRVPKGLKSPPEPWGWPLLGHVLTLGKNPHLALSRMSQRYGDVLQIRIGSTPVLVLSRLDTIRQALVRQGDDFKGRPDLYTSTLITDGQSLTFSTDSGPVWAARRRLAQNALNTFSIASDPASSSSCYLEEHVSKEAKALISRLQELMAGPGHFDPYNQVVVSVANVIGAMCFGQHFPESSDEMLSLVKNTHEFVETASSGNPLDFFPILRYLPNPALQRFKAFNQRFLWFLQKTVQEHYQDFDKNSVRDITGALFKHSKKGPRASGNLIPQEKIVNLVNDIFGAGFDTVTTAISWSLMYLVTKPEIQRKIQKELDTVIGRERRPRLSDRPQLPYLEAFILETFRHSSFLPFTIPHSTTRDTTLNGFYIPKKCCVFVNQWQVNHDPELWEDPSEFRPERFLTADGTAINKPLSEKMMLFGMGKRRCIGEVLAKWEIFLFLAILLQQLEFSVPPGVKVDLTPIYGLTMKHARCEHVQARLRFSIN

[3] = target: T2, CYP2B6 (Homo sapiens, UniProt P20813); test: Recombinant isozyme kinetic assay; conditions: substrate desmethyl-terbinafine
T2 sequence (P20813 1-491): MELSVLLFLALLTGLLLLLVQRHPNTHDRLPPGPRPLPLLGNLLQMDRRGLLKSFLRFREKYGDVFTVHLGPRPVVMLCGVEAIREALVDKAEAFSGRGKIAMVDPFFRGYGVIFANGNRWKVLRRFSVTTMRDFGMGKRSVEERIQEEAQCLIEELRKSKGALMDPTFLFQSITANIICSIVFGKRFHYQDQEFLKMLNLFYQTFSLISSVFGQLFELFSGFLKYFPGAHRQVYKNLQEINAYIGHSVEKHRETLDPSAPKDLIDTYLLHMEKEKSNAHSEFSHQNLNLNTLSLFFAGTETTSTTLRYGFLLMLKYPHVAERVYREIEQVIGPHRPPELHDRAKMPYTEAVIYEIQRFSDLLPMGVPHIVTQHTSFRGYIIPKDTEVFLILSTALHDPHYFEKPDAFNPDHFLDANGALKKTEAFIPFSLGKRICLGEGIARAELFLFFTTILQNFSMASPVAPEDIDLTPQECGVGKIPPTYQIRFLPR

[4] = target: T3, CYP2C8 (Homo sapiens, UniProt P10632); test: Recombinant isozyme kinetic assay; conditions: substrate desmethyl-terbinafine
T3 sequence (P10632 1-490): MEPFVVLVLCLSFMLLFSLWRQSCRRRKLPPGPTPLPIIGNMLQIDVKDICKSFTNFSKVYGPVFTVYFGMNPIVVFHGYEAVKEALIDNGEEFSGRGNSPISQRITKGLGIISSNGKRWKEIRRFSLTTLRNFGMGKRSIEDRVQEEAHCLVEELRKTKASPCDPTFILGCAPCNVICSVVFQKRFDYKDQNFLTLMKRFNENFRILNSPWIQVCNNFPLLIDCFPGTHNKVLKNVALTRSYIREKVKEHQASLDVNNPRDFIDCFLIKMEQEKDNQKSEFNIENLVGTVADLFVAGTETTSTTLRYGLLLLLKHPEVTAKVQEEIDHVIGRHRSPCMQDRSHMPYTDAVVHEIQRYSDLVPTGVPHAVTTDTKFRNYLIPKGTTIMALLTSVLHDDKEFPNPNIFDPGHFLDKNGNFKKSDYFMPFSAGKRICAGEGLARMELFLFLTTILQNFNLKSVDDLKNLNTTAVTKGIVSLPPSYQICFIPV

[5] = target: CYP2D6 (Homo sapiens, UniProt P10635)
Sequence of CYP2D6 (P10635 whole entry): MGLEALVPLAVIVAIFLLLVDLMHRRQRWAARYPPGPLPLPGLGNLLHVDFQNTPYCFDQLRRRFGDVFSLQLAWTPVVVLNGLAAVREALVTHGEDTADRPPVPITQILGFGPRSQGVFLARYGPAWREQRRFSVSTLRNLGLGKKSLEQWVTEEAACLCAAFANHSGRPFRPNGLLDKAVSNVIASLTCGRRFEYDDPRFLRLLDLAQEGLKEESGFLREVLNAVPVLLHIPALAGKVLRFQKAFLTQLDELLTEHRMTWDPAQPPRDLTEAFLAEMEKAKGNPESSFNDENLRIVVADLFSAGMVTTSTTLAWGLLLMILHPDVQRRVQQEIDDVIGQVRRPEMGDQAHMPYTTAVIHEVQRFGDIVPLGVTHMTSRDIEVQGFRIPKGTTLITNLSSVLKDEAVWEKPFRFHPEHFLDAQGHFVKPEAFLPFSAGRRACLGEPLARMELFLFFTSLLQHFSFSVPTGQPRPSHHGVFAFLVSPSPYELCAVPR

[6] = CYP2C9, Step 2.2b, substrate desmethyl-terbinafine
[7] = normalized MS peak area, scaled x10^6

Sequence of CYP2C9 (P11712 whole entry): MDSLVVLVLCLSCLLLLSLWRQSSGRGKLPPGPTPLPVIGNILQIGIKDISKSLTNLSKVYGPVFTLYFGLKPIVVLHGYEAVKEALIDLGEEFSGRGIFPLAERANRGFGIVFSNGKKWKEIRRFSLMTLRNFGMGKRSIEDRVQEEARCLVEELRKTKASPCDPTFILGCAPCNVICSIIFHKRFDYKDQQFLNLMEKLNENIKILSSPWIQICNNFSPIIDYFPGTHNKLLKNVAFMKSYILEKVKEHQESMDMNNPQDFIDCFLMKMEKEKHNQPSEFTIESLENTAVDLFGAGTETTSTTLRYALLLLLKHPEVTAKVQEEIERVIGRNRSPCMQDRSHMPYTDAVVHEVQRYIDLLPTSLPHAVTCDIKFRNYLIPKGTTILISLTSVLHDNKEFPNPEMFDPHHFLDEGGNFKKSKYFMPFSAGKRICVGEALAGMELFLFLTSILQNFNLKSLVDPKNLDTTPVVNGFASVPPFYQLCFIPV

Structure (SMILES): CC(C)(C)C#C/C=C/CNCc1cccc2ccccc12.Cl [desmethyl-terbinafine, N-desmethyl-terbinafine hydrochloride]
- Vmax, 1-naphthyl-methylamine formation ([1]; CYP2C9, Step 2.2a, substrate desmethyl-terbinafine): 330 ± 41 pmol/min/nmol protein
- 6,6-dimethyl-2-hepten-4-yn-1-amine formation (steady-state kinetic constants) [1, 6]: undetected
- Vmax, 1-naphthaldehyde formation [1, 6]: 69 ± 4.4 pmol/min/nmol protein
- desmethyl hydroxyterbinafine formation (kinetic constants) ([1]; CYP2C9, substrate desmethyl-terbinafine): undetected
- Vmax, desmethyl-terbinafine dihydrodiol formation ([1]; CYP2C9, substrate desmethyl-terbinafine, normalized MS peak area, scaled x10^6): 2.0 ± 0.07 μV*sec/min/nmol
- fold higher efficiency of dihydrodiol formation by CYP2C9 vs CYP2B6 ([1]; substrate desmethylterbinafine): 50 fold
- desmethyl hydroxyterbinafine formation (kinetic constants) [2]: undetected
- desmethyl-terbinafine dihydrodiol formation (kinetic constants) [2]: undetected
- 6,6-dimethyl-2-hepten-4-yn-1-amine formation (steady-state kinetic constants) ([3]; Step 2.2b): undetected
- Vmax, desmethyl hydroxyterbinafine formation ([3]; no saturation): linear
- Vmax, desmethyl-terbinafine dihydrodiol formation [3, 7]: 0.59 ± 0.13 μV*sec/min/nmol
- Vmax, 1-naphthyl-methylamine formation ([4]; Step 2.2a): 85 ± 6.5 pmol/min/nmol protein
- 6,6-dimethyl-2-hepten-4-yn-1-amine formation (steady-state kinetic constants) ([4]; Step 2.2b): undetected
- Vmax, 1-naphthaldehyde formation ([4]; Step 2.2b): 300 ± 28 pmol/min/nmol protein
- desmethyl-terbinafine dihydrodiol formation (kinetic constants) [4]: undetected
- Vmax, desmethyl hydroxyterbinafine formation [4, 7]: 0.61 ± 0.04 μV*sec/min/nmol
- desmethyl hydroxyterbinafine formation (kinetic constants) [5]: undetected
